Assay results as given in patent US7799969B2, “Methods for cloning rats by nuclear transfer” (Institut National de la Recherche Agronomique, priority 2003, dated 2010).
Where a SMILES comes first, the peptide text is derived from it. The star is where a group is joined. Cbz = O=C(OCc1ccccc1)*

Columns and labels:
rat ovocytes [1] = assay: Inhibition of spontaneous activation of rat ovocytes by exposure to a proteasome inhibitor; format: cell-based; details: repeats n = 2
Description: The method according to the invention presents the advantage of strictly and reversibly controlling the ovocyte activation process by acting upstream of the biochemical processes that control activation and by preventing the degradation of the macromolecular compounds responsible for arrest of the ovocyte in metaphase and in particular of the cyclins. In order to do this, the ovocyte is exposed in vitro to one or more inhibitor(s) of proteasome, a key organelle of the cell: inhibition of its proteolytic action on the cyclins makes it possible to maintain an elevated level of MPF kinasic activity which determines metaphase arrest. The majority of ovocytes may thus be maintained in metaphase of the second meiotic division for several hours after their harvest (table 1).
Solutions: • Medium M2 (Hogan & al, 1994 In: Manipulating the Mouse Embryo) • Medium RECMB2*-MG132 (MG132=1.25 μM) • Medium M2-Hyaluronidase-MG132 (MG132=1.25 μM; Hyaluronidase=2.5 mg/ml) • Medium M2-MG132 (MG132=5.00 μM) • *RECMB2=medium mRlECM-BSA (Oh & al. (1998) Biol. Reprod.), with BSA=4 mg/ml and NaCl=100-130 mM.
10. The “decoronised” ovocytes are transferred to a drop of culture medium RECMB2-MG132.

rat ovocytes [2] = assay: Reversibility of the inhibition of spontaneous activation of rat ovocytes (parthenogenetic development after removal of MG132 and activation by butyrolactone); format: cell-based; details: repeats n = 5
[3] = test system: rat embryos reconstructed from ovocytes; assay: Rate of foetal development of rat embryos reconstructed from ovocytes previously exposed to a proteasome inhibitor; format: in vivo
Description: By the method according to the invention, the ovocytes are transferred to a medium not containing inhibitor(s) right before conducting the reconstruction of the embryos. This makes it possible to avoid direct exposure of the nucleus donor cells to their action. Reconstruction of the embryos must then be carried out very rapidly before proteasome becomes functional again in order to avoid a premature activation of the ovocyte. The purpose of this rapid reconstruction is to […] the period during which the condensed chromatin of the nucleus is directly exposed to the ovocyte factors which make possible the reprogramming of the activity of the foreign nucleus. It then becomes possible to reconstitute a greater number of embryos during a given time period, and therefore to increase the number of transplanted embryos per recipient female for in vivo development. This possibility makes it possible to get around the low rate of implantation observed in the rat after transfer of a nucleus (table 4).
These foetuses may give rise to viable baby rats (table 4).
Set up the retention and enucleation-injection pipettes on their respective pipette holders. • 5. Position the pipettes so that their ends are horizontal, i.e., parallel to the coverglass of the micromanipulation chamber, and facing each other. • 6. Transfer the ovocytes and the cells to the micro-injection chamber by means of a pipette for manipulation of the ovocytes. • 7. Maintain an ovocyte on the maintenance pipette in order that the deformation of the plasma membrane under which the ovocyte metaphase is situated, is situated between 2 and 3 hr or between 3 and 4 hr. • 8. Apply the enucleation-injection pipette to the pellucid area at 3 hr. Verify that the pipette is in exactly the same plane as the pellucid area. Gently aspirate the pellucid area and activate the piezo system (setting 1) to puncture it. When the system is perfectly adjusted the pellucid area is punctured in a few seconds according to a perfect punch. • 9. Next, aspirate a cell whose morphology corresponds to the sought-for criteria into the enucleation-injection pipette and break its plasma membrane by several to-and-fro's in the pipette or by means of the piezo-Drill (a few impulsions are sufficient at setting 2). Maintain the cell close to the end of the micropipette. • 10. Penetrate into the perivitelline space of the ovocyte through the previously punctured orifice, apply the pipette against the plasma membrane and push the donor cell back to the end of the pipette and then push the pipette in up to the opposite end of the ovocyte without, however, reaching the plasma membrane opposite. • 11. Break the plasma membrane by means of one or more impulsions (1 to 3) of the Piezo-Drill (setting 2). • 12. Inject the cell into the cytoplasm of the ovocyte with the minimum possible medium. • 13. Gently withdraw the enucleation-injection pipette and re-close the ovocyte by aspirating the 2 ends of the broken plasma membrane and the ovocyte metaphase (enucleation). • 14. Transfer the reconstructed embryos into a micro-drop (50 μl) of RECMB2. • 15. Ovocyte activation is triggered or prolonged by transfer of the ovocytes to a micro-drop (20 μl) of RECMB2-BLI for a duration of activation generally between 1 and 2 hr. • 16. The ovocytes are then rinsed in 4-5 drops (50 μl) of RECMB2 to be cultured in the same medium while waiting to be transferred into a pseudogestating female or to prolong in vitro culture.

[4] = reconstructed embryos transferred to recipient females

## CC(C)C[C@@H](C=O)NC(=O)[C@H](CC(C)C)NC(=O)[C@H](CC(C)C)NC(=O)OCc1ccccc1 [MG132, peptide aldehyde Cbz-LLL-H] (Cbz-Leu-Leu-Leu-aldehyde)
Rat ovocytes [1]; t = 0
  % of activated ovocytes after collection: 0% (0/68)
Rat ovocytes [1]; t = 210 m after collection
  % of activated ovocytes after collection: 33.8% (23/68)
Rat ovocytes [2]; t = 0 removal of MG132, exposure to MG132 for 120 min, activation by butyrolactone
  % of embryos (parthenogenetic development at the morula stage): 0% (0/71)
Rat ovocytes [2]; t = 120 min, after removal of MG132 and induction of activation by butyrolactone
  % of embryos (parthenogenetic development at the morula stage): 45.9% (34/74)
[3]; % in brackets
  No. of foetuses (%) total: 55.9%
  No. of foetuses (%) viable: 47.0%
[3]; number of recipient females
  pregnant recipients between D12-22: 11
[3]; of the viable foetuses
  living at D12-D14: 11
  living rats at term: 5
[3]; rat, in vivo
  No. of foetuses total: 19
  No. of foetuses viable: 16
[3]; [4]
  implantation (%): 5.4%
  implantation (number): 34
